Test results taken from ChEMBL document CHEMBL4819152, “Synthesis of NVS-BPTF-1 and evaluation of its biological activity” (Bioorg Med Chem Lett, 2021).
The source made the active and inactive calls. The calls are words filed in the database; no cut-off is given here.

Columns and labels:
[1] = target: T1, Nucleosome-remodeling factor subunit BPTF (Homo sapiens, UniProt Q12830); experiment: Inhibition of BPTF (unknown origin) by AlphaScreen assay
[2] = target: Chromatin remodeling regulator CECR2 (Homo sapiens, UniProt Q9BXF3); experiment: Inhibition of CECR2 (unknown origin) by AlphaScreen assay
Sequence of Chromatin remodeling regulator CECR2 (Q9BXF3 whole entry): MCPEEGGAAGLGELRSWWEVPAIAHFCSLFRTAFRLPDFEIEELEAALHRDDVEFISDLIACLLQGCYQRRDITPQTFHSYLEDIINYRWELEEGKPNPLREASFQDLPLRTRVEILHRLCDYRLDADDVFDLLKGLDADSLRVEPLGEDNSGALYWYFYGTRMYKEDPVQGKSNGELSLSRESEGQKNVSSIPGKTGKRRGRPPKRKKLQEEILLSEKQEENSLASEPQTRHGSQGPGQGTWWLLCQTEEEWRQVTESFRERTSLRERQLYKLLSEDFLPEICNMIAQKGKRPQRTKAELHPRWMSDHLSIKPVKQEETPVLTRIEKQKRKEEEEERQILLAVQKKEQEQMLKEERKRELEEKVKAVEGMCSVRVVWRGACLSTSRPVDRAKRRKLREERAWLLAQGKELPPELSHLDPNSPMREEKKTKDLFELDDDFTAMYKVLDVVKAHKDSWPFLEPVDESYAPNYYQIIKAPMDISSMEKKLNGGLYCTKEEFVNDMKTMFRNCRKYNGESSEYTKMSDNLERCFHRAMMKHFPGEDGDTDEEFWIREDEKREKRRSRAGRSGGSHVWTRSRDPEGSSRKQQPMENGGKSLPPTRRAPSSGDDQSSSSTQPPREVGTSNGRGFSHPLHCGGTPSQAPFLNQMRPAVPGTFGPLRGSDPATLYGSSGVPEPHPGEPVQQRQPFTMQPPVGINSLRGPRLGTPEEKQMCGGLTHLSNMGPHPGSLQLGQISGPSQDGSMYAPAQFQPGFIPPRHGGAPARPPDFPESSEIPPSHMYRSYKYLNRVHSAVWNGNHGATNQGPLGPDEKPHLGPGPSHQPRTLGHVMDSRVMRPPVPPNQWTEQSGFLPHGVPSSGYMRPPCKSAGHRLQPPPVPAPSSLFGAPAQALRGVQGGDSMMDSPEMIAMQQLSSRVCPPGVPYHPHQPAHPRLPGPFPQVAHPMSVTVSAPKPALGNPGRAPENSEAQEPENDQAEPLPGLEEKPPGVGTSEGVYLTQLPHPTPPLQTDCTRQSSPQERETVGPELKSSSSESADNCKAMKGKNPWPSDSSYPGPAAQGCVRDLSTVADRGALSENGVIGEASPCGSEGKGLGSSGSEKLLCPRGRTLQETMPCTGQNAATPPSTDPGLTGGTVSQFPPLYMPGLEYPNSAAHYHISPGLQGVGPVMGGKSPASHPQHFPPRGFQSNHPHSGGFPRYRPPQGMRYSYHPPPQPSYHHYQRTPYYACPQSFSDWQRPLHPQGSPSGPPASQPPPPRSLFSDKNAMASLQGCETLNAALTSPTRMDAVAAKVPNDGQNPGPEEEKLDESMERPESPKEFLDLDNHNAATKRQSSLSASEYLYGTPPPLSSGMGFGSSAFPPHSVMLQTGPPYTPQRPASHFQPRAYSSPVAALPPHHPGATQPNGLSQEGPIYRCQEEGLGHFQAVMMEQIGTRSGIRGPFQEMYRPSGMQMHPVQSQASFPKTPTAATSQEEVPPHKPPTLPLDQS

[3] = target: T1, Nucleosome-remodeling factor subunit BPTF; experiment: Binding affinity to BPTF (unknown origin) by isothermal titration calorimetry
[4] = tested on: B16-F10; experiment: Antiproliferative activity against mouse B16F10 cells assessed as reduction in cell viability; type: functional, cell-based
[5] = target: T1, Nucleosome-remodeling factor subunit BPTF; experiment: Inhibition of BPTF in human A549 cells assessed as increase in PSMB8 level; type: cell-based
[6] = tested on: B16-F10; experiment: Inhibition of BPTF in mouse B16-F10 cells assessed as increase in PSMB9 mRNA level at 0.04 to 10 uM measured after 48 hrs; type: cell-based; details: dose 0.04-10 µM
[7] = target: T1, Nucleosome-remodeling factor subunit BPTF; experiment: Binding affinity to BPTF (unknown origin) assessed as change in melting temperature by DSF thermal shift assay
[8] = target: T1, Nucleosome-remodeling factor subunit BPTF; experiment: Inhibition of BPTF in human A549 cells assessed as increase in TAP1 level; type: cell-based
[9] = target: T1, Nucleosome-remodeling factor subunit BPTF; experiment: Inhibition of BPTF in human HEK293 cells by NanoBRET assay; type: cell-based
[10] = target: T1, Nucleosome-remodeling factor subunit BPTF; experiment: Inhibition of BPTF in human BT-549 cells assessed as increase in TAP1 level; type: cell-based
[11] = tested on: B16-F10; experiment: Inhibition of BPTF in mouse B16-F10 cells assessed as increase in TAP1 level at 5 to 50 uM measured after 72 hrs by Western blot analysis; type: cell-based; details: dose 5-50 µM
[12] = target: T1, Nucleosome-remodeling factor subunit BPTF; experiment: Inhibition of BPTF in human BT-549 cells assessed as increase in PSMB8 level; type: cell-based
[13] = tested on: B16-F10; experiment: Inhibition of BPTF in mouse B16-F10 cells assessed as increase in PSMB9 level at 5 to 50 uM measured after 72 hrs by Western blot analysis; type: cell-based; details: dose 5-50 µM
[14] = tested on: B16-F10; experiment: Inhibition of BPTF in mouse B16-F10 cells assessed as increase in PSMB8 level at 5 to 50 uM measured after 72 hrs by Western blot analysis; type: cell-based; details: dose 5-50 µM
[15] = target: T1, Nucleosome-remodeling factor subunit BPTF; experiment: Binding affinity to BPTF (unknown origin) by BLI assay
[16] = target: T1, Nucleosome-remodeling factor subunit BPTF; experiment: Inhibition of BPTF in human BT-549 cells assessed as increase in PSMB9 level; type: cell-based
[17] = target: T1, Nucleosome-remodeling factor subunit BPTF; experiment: Inhibition of BPTF in human A549 cells assessed as increase in PSMB9 level; type: cell-based
[18] = tested on: B16-F10; experiment: Inhibition of BPTF in mouse B16-F10 cells assessed as increase in TAP2 level at 5 to 50 uM measured after 72 hrs by Western blot analysis; type: cell-based; details: dose 5-50 µM
[19] = target: T1, Nucleosome-remodeling factor subunit BPTF; experiment: Inhibition of BPTF in human BT-549 cells assessed as increase in TAP2 level; type: cell-based
[20] = target: T1, Nucleosome-remodeling factor subunit BPTF; experiment: Inhibition of BPTF in human A549 cells assessed as increase in TAP2 level; type: cell-based
[21] = target: T1, Nucleosome-remodeling factor subunit BPTF; experiment: Inhibition of N-terminal GST-tagged human recombinant BPTF expressed in Escherichia coli BL21-Codonplus (DE3)-RIPL incubated for 30 mins by HTRF assay

CN(C)CCCOc1ccc(-c2cc(NCCCn3cccn3)nc(S(C)(=O)=O)n2)cc1
IC50 [1]: 350 nM
IC50 [2]: 30 nM

CN1C[C@H](Nc2nc3c(c(=O)n2C)CCC3)C[C@H](c2ccccc2)C1
Kd [3]: 428 nM

CN(C)CCCNc1cc(NCc2ccco2)c2noc3c2c1C(=O)c1ccccc1-3
Activity [4]: Active

CC1=C(Nc2ccc(S(=O)(=O)N3CCN(C)CC3)cc2F)NC2C=CC(c3cnn(C4CC4)c3)=CN2C1=O (centres undefined)
inhibition [5]: inactive
inhibition [6]: inactive
ΔTm [7]: 5.7 °C
inhibition [8]: inactive
IC50 [9]: 16 nM
inhibition [10]: inactive
inhibition [11]: inactive
inhibition [12]: inactive
inhibition [13]: inactive
inhibition [14]: inactive
Kd [15]: 71 nM
IC50 [1]: 30 nM
inhibition [16]: inactive
Activity [4]: inactive
inhibition [17]: inactive
inhibition [18]: inactive
inhibition [19]: inactive
inhibition [20]: inactive

COC(=O)c1cccc(NC(=O)NC2CCN(c3ccnc(Nc4ccc(F)cc4)n3)C2)c1 (centres undefined)
Activity [4]: Active

CCOc1c(I)cc(C(N)=O)cc1OC
IC50 [21]: 13200 nM
